Laboratory results reported in BindingDB's records for doi:10.1111/j.1747-0285.2010.01010.x (University of Washington, 2010).

target: Thymidylate synthase (Homo sapiens, UniProt P04818); assay: Tritium Release Assay; details: pH 7.5; 4 °C
Sequence (P04818 whole entry): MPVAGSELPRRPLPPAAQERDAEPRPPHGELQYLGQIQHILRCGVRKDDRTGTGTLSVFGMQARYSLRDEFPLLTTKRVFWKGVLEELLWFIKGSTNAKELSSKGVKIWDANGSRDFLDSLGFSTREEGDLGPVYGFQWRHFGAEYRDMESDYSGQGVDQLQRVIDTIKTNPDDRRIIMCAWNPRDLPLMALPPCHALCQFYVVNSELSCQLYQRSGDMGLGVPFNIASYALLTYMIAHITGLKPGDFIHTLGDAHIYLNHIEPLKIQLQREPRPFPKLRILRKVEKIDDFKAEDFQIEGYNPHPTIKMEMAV

IC50 [µM]	Kd [µM]	Compound
160		CCN1C(=O)c2cccc3c(NC(=O)c4cccs4)ccc1c23 [MV1554]
30	5	Cc1c(C(=O)NCCc2cccs2)nnn1-c1ccccc1 [MV1555]
240		O=C(O)c1ccc(/N=C/c2ccc(-c3cccs3)s2)cc1 [MV1556]
160		CC(=NNC(=O)Cc1c(C)[nH]c2ccc(C)cc12)c1cccs1 [MV1561]
70	1	CCc1ccc(/C=N/NC(=O)c2c[nH]c3ccccc23)s1 [MV1565]
70	2	O=C(NCCc1c[nH]c2ccccc12)/C(=C\c1cccs1)NC(=O)c1cccs1 [MV1570]
> 500		CC(OC(=O)c1cc2occc2n1C)C(=O)NCc1cccs1 (stereo not given) [MV1574]
140		CCOC(=O)c1cc2occc2n1CC(=O)N1CCc2ccccc21 [MV1576]
> 500		CCOC(=O)c1cc2oc(C)cc2n1CC#N [MV1578]
> 500		Cc1onc(-c2ccccc2)c1C(=O)NCc1cccs1 [MV1581]
115		O=C(NCc1cccs1)c1nc(-c2ccccc2)no1 [MV1586]
115		Cc1cc(C(=O)CSc2nnc(N)s2)c(C)n1Cc1ccco1 [MV1588]
